# ChEMBL document CHEMBL4428131, “Scaffold-hopping from xanthines to tricyclic guanines: A case study of dipeptidyl peptidase 4 (DPP4) inhibitors” (Bioorg Med Chem, 2016)
# Target: Dipeptidyl peptidase 4 (Homo sapiens, UniProt P27487)
# Assay: Inhibition of DPP4 (unknown origin) using Gly-Pro-AMC as substrate preincubated for 30 mins followed by substrate addition measured after 50 mins by fluorescence assay
# Chain of Dipeptidyl peptidase 4 (P27487 whole entry): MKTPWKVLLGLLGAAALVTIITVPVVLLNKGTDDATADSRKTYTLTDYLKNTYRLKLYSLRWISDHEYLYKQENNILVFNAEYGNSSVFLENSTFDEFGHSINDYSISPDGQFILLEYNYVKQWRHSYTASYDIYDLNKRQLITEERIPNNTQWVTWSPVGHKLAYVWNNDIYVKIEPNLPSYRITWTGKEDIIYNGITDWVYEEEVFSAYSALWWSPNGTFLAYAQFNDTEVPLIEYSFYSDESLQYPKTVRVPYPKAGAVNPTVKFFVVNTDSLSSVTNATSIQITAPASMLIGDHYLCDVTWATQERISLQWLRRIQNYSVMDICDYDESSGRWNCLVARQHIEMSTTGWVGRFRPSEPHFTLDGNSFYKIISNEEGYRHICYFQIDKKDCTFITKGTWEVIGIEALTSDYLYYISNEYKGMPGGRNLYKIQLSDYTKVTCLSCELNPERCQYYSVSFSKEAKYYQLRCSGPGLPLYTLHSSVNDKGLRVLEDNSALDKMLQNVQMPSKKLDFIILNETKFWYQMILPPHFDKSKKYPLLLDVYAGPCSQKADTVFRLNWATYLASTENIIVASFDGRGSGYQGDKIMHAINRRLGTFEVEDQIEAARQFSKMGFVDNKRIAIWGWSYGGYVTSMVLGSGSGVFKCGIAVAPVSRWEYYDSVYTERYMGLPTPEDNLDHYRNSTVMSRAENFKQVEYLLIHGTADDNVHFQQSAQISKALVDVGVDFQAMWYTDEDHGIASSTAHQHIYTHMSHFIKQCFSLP
row,SMILES,IC50 [µM]
1,CC#CCn1c(N2CCC[C@@H](N)C2)nc2c1c(=O)nc1n2CCCN1CCCc1ccccc1,> 10
2,CC#CCn1c(N2CCC[C@@H](N)C2)nc2c1C(=O)N(CCCc1ccccc1)C1=NCCCN12,> 10

# Target: T1, Prolyl endopeptidase FAP (Homo sapiens, UniProt Q12884)
# T1 sequence (Q12884 whole entry): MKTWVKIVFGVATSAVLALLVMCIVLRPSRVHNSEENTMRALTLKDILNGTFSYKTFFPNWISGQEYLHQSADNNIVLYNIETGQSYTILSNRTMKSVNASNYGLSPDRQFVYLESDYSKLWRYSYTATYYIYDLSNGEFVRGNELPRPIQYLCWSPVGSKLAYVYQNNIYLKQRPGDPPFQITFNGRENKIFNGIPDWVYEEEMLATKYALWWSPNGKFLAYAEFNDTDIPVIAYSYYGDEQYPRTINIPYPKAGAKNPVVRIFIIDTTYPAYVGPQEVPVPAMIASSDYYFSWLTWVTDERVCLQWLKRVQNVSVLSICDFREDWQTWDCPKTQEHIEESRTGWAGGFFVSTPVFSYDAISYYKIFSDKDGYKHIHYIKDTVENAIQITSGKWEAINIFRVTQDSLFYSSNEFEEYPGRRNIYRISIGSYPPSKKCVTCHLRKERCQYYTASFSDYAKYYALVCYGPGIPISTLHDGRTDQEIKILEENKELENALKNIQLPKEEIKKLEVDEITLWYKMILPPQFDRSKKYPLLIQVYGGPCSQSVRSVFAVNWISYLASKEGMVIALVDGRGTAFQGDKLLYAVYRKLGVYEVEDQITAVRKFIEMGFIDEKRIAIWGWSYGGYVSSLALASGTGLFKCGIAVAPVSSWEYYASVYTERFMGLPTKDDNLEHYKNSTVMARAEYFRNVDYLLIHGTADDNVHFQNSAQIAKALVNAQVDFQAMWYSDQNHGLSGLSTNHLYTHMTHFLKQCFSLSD
# Assay: Inhibition of FAP (unknown origin) using Nle-Pro-AMC as substrate preincubated for 20 mins followed by substrate addition measured after 40 mins by fluorescence assay
row,SMILES,IC50 [µM]
1,CC#CCn1c(N2CCC[C@@H](N)C2)nc2c1C(=O)N(Cc1nc(C)c3ccccc3n1)C1=NCCN12,0.367
2,Cc1nc(CN2C(=O)c3c(nc(N4CCC[C@@H](N)C4)n3Cc3cc(F)ccc3F)N3CCN=C23)nc2ccccc12,9.92
3,CC#CCn1c(N2CCC[C@@H](N)C2)nc2c1C(=O)N(Cc1nc(C)c3ccccc3n1)C1=NCCCN12,0.268
4,CC(C)=CCn1c(N2CCC[C@@H](N)C2)nc2c1C(=O)N(Cc1nc(C)c3ccccc3n1)C1=NCCN12,0.755
5,Cc1nc(CN2C(=O)c3c(nc(N4CCC[C@@H](N)C4)n3Cc3cccc(F)c3)N3CCN=C23)nc2ccccc12,4.62
6,Cc1nc(CN2C(=O)c3c(nc(N4CCC[C@@H](N)C4)n3Cc3ccccc3)N3CCN=C23)nc2ccccc12,4.64
7,Cc1nc(CN2C(=O)c3c(nc(N4CCC[C@@H](N)C4)n3CC3CC3)N3CCN=C23)nc2ccccc12,3.12
8,CC#CCn1c(N2CCC[C@@H](N)C2)nc2c1C(=O)N(Cc1ccc(OC)cc1)C1=NCCCN12,> 50
9,CC#CCn1c(N2CCC[C@@H](N)C2)nc2c1C(=O)N(Cc1cccc3ccccc13)C1=NCCCN12,22.4
10,CC#CCn1c(N2CCC[C@@H](N)C2)nc2c1C(=O)N(Cc1ccccc1C#N)C1=NCCN12,> 100
11,Cc1nc(CN2C(=O)c3c(nc(N4CCC[C@@H](N)C4)n3CC3CC3(F)F)N3CCN=C23)nc2ccccc12 (stereo partly drawn),14.7
12,Cc1nc(CN2C(=O)c3c(nc(N4CCC[C@@H](N)C4)n3CC3CCC3)N3CCN=C23)nc2ccccc12,3.05
13,Cc1nc(CN2C(=O)c3c(nc(N4CCC[C@@H](N)C4)n3Cc3ccccc3C#N)N3CCN=C23)nc2ccccc12,15.3
14,Cc1nc(CN2C(=O)c3c(nc(N4CCC[C@@H](N)C4)n3CC(=O)C3CC3)N3CCN=C23)nc2ccccc12,0.107
15,CC#CCn1c(N2CCC[C@@H](N)C2)nc2c1C(=O)N(Cc1cccc(C#N)c1)C1=NCCN12,78.5
16,CC#CCn1c(N2CCC[C@@H](N)C2)nc2c1C(=O)N(Cc1ccc(C#N)cc1)C1=NCCN12,88.3
